Patent publication US20040024068A1, “Antimicrobial compounds” (priority 1998, published 2004)
Converted amounts (≈) assume the structure as drawn. Where two headings read alike, the source gives them in different places.

What was measured:
[1] = test system: Mycobacterium smegmatis mc^2155 and InhA mutants; assay: MIC on agar plates by 2-fold serial dilutions, M. smegmatis strains; format: cell-based; conditions: for MIC: Mycolicibacterium smegmatis
[2] = test system: hypersusceptible host strain AG100A bearing pBR322-derived plasmids; assay: Triclosan MIC encoded by plasmid clones in hypersusceptible host AG100A; format: cell-based; conditions: Escherichia coli
[3] = test system: E. coli strains AG100, AG100A, AGT11, AGT11K; assay: Inhibition of growth rate in broth (liquid) culture; format: cell-based, Escherichia coli; conditions: for IC50: Escherichia coli, 1 h, 1 h after addition
E. coli K-12 derivatives = assay: microbe, parasite or virus in culture; format: cell-based, Escherichia coli; conditions: for MIC: Escherichia coli
[4] = test system: E. coli strains AG100, AG100A, AGT11, AGT11K; assay: Cell lysis in broth (liquid) culture (loss of absorbance with loss of viable cfu); format: cell-based, Escherichia coli
M. smegmatis = conditions: cited from earlier work
[5] = test system: clinical strains of E. coli; assay: Triclosan MIC of clinical strains from blood samples; format: cell-based; conditions: Escherichia coli
M. tuberculosis = conditions: cited from earlier work
[6] = test system: E. coli K12 strain AG100 and triclosan resistant mutants; assay: Triclosan MIC by agar serial dilution plates (2.0 fold steps), AG100 and mutants selected on triclosan; format: cell-based, Escherichia coli; conditions: for MIC: agar dilution plates
[7] = test system: E. coli strain AGT11 versus isogenic parent AG100; assay: Isoniazid resistance of E. coli in the presence of 250 μM hydrogen peroxide; format: cell-based, Escherichia coli; conditions: triclosan-resistant strain AGT11; 250 μM hydrogen peroxide present

Oc1cc(Cl)ccc1Oc1ccc(Cl)cc1Cl [triclosan, 2,4,4′-trichlor-2′-hydroxydiphenyl ether]
MIC ([1]; MC^2155, mc^2155, triclosan in 7H9): 14 µg/mL (≈ 48.4 µM)
MIC ([1]; MC^2155, mc^2155, triclosan in LB, mean (+/− S.D.) of 4-5 experiments): 0.61 µg/mL (≈ 2.11 µM)
MIC ([2]; clones pLYT1 through pLYT10 (AGT11 library) in hypersensitive strain AG100A): ~4 µg/mL (≈ 13.8 µM)
MIC ([2]; vector alone (pBR322) in AG100A): 0.005 to 0.02 µg/mL (≈ 0.0173 to 0.0691 µM)
IC50 ([3]; read-out: Concentration of triclosan which inhibited growth rate 50%, strain AG100 (wild type), OD530): ~0.15 µg/mL (≈ 0.518 µM)
IC50 ([3]; read-out: Concentration of triclosan which inhibited growth rate 50%, strain AG100A (ΔacrAB)): ~0.02 µg/mL (≈ 0.0691 µM)
Concentration of triclosan which inhibited growth rate 90% ([3]; strain AG100 (wild type)): 0.6 µg/mL
Concentration of triclosan which inhibited growth rate 90% ([3]; strain AG100A (ΔacrAB)): 0.05 µg/mL
MIC (E. coli K-12 derivatives; AG100, span of Tables 3-5, read-out: MIC (determined on agar)): 0.17 to 0.28 µg/mL (≈ 0.587 to 0.967 µM)
MIC (E. coli K-12 derivatives; strain AG100, mean of two to five determinations, read-out: MIC): 0.17 µg/mL (≈ 0.587 µM)
MIC (E. coli K-12 derivatives; strain GC4488, read-out: MIC): 0.08 µg/mL (≈ 0.276 µM)
MIC (E. coli K-12 derivatives; strain HH180, read-out: MIC): 0.07 µg/mL (≈ 0.242 µM)
change of triclosan MIC by overexpression of acrAB (E. coli K-12 derivatives; strain AG100B (mutation in acrR) vs AG100): doubled
Concentration of triclosan which caused lysis ([4]; strain AG100 (wild type), within 2 h): 8 µg/mL
amount of triclosan required to give lysis ([4]; strains AG100, AG100A and AGT11K together): 2 to 8 µg/mL
susceptibility to triclosan (M. smegmatis): susceptible
MIC ([5]; read-out: mean triclosan MIC, multiply resistant clinical strains E3, E19, HO99 overexpressing marA or soxS): 0.33 µg/mL
MIC ([5]; read-out: mean triclosan MIC, remaining 26 multiply resistant clinical strains overexpressing neither marA or soxS): 0.13 µg/mL
MIC ([5]; read-out: mean triclosan MIC, 14 of 15 antibiotic-susceptible clinical strains (Series S)): 0.09 µg/mL
MIC ([5]; read-out: triclosan MIC, multiply resistant clinical strain E10, overexpressing neither marA nor soxS): 0.38 µg/mL
MIC ([5]; read-out: triclosan MIC, multiply resistant clinical strain HO 17, overexpressing marA): 0.15 µg/mL
MIC ([5]; read-out: triclosan MIC, susceptible clinical strain S20, overexpressing marA): 0.27 µg/mL
susceptibility to triclosan (M. tuberculosis): not sensitive
MIC ([6]; Escherichia coli, strain AG100 (wild-type)): 0.28 µg/mL (≈ 0.967 µM)
MIC ([6]; Escherichia coli, strain AG100A (AG100 ΔacrAB::kan)): 0.018 µg/mL (≈ 0.0622 µM)
MIC ([6]; Escherichia coli, strain AGT11 (AG100 fabI G93V)): 41 µg/mL (≈ 142 µM)
MIC ([6]; Escherichia coli, strain AGT11K (AGT11 ΔacrAB::kan)): 2 to 4 µg/mL (≈ 6.91 to 13.8 µM)
MIC of strain divided by MIC of AG1000 ([6]; strain AG100 (fabI none), inactivated locus acrAB): 0.063
MIC of strain divided by MIC of AG1000 ([6]; strain AG100 (fabI none), inactivated locus mar): 0.71
MIC of strain divided by MIC of AG1000 ([6]; strain AG100 (fabI none), inactivated locus none): 1
MIC ([6]; strain AG100 (wild-type)): 0.28 ± 0.04 µg/mL (≈ 0.967 µM)
MIC of strain divided by MIC of AG1000 ([6]; strain AGT7 (fabI mutation NI), inactivated locus none): 1.7
MIC of strain divided by MIC of AG1000 ([6]; strain AGT7, inactivated locus acrAB): 0.071
MIC of strain divided by MIC of AG1000 ([6]; strain AGT7, inactivated locus mar): 1.7
MIC of strain divided by MIC of AG1000 ([6]; strain AGT8 (fabI mutation NI), inactivated locus none): 4
MIC of strain divided by MIC of AG1000 ([6]; strain AGT8, inactivated locus acrAB): 0.25
MIC of strain divided by MIC of AG1000 ([6]; strain AGT8, inactivated locus mar): 3.4
MIC of strain divided by MIC of AG1000 ([6]; strain AGT9 (fabI mutation NI), inactivated locus none): 2.3
MIC of strain divided by MIC of AG1000 ([6]; strain AGT9, inactivated locus acrAB): 0.32
MIC of strain divided by MIC of AG1000 ([6]; strain AGT9, inactivated locus mar): 2.3
MIC ([6]; strain AGT11K (AGT11 ΔacrAB::kan)): 3.2 µg/mL (≈ 11.1 µM)
MIC of strain divided by MIC of AG1000 ([6]; strain AGT21 (fabI G93V), inactivated locus acrAB): 11.4
MIC of strain divided by MIC of AG1000 ([6]; strain AGT21 (fabI G93V), inactivated locus mar): 145
MIC of strain divided by MIC of AG1000 ([6]; strain AGT21 (fabI G93V), inactivated locus none): 145
MIC of strain divided by MIC of AG1000 ([6]; strain AGT23 (fabI M159T), inactivated locus acrAB): 1.7
MIC of strain divided by MIC of AG1000 ([6]; strain AGT23 (fabI M159T), inactivated locus none): 11.4
MIC of strain divided by MIC of AG1000 ([6]; strain AGT25 (fabI F203L), inactivated locus acrAB): 0.57
MIC of strain divided by MIC of AG1000 ([6]; strain AGT25 (fabI F203L), inactivated locus none): 4.6

NNC(=O)c1ccncc1 [isoniazid]
MIC ([1]; MC^2155): 7 µg/mL (≈ 51 µM)
relative MIC (S.D.) isoniazid (7H9) ([1]; strain mc^2155/pMD31::inhA^+): >64
relative MIC (S.D.) isoniazid (7H9) ([1]; strain mc^2155 wild type): 1.0
isoniazid resistance relative to isogenic parent AG100 [7]: several times
